Measurements from EP0681475B1 (priority 1993, dated 1994).
Like-named read-outs stand apart in the source and are kept apart here.

Columns and labels:
pig femoral arteries = details: in vivo
[1] = test system: Vascular smooth muscle cells
[2] = test system: Vascular smooth muscle cells; assay: In vitro recovery of migration after clearance of the agent; format: cell-based; details: cells regenerate enough polymerized actin
[3] = test system: Vascular smooth muscle cells (BO54); assay: Scratch-migration assay; format: cell-based, baboon; details: 0.1 µg/ml
Method: Scratch assays to determine the extent of smooth muscle cell migration inhibition by cytochalasin B were performed in accordance with the following protocol: Vascular smooth muscle cells (BO54) were derived from explants of baboon aortic smooth muscle, as described in Example 2. The cells were grown in flat bottom, six well tissue culture plates, which hold about 5 ml of medium. The vascular smooth muscle cells were plated at 200,000 cells/well and placed at 37°C in a humidified 5% CO2 incubator for 18 hours. The wells were then scratched with a sterile portion of a single edge razor blade that was held by clamp or pliers and was brought aseptically into contact with the bottom of the well at a 90° angle.The cells from a small area along the scratch were removed by a sterile cotton tipped applicator while the blade was in contact with the bottom of the well.
After incubation, the presence of cells in the "scratched" area is indicative of cell migration across the scratch line.
Briefly, a stock solution of cytochalasin B (Sigma Chemical Co.) in dimethyl sulfoxide (DMSO) at 1 mg/ml was prepared. Test dilutions of cytochalasin B or control medium were added. […]
The migration results are expressed as "Grade in the Cleared Area of the Well / Grade in an Undisturbed Region of the Well." The toxicity values represent a grade for all cells in each well.

[4] = test system: vascular smooth muscle cells; format: in vivo, pig
[5] = test system: Vascular smooth muscle (BO54) cells; format: cell-based, baboon
[6] = test system: Vascular smooth muscle (BO54) cells; format: cell-based, baboon; remark: listed apart in the source

Row | Compound | effect on luminal area in dose response study (pig femoral arteries) | incidence of mural microthrombi (pig femoral arteries) | lumen area in the test region compared to the normal control segment of the same artery (pig femoral arteries) | luminal area compared to arteries treated with other test agents or controls (pig femoral arteries) | Morphological cytotoxicity grade ([1]; 0.01ug, Continuous 24 hrs (first listing, 24 hr pulse series)) | Morphological cytotoxicity grade ([1]; 0.01ug, continuous 24 hrs (second listing, long term continuous series)) | Morphological cytotoxicity grade ([1]; 0.1 ug, Continuous 24 hrs (first listing, 24 hr pulse series)) | Morphological cytotoxicity grade ([1]; 0.1 ug, continuous 24 hrs (second listing, long term continuous series)) | cytotoxicity grade ([1]; 1 µg/ml, anti-migration/contraction effective dose, 1 = minimal) | Morphological cytotoxicity grade ([1]; 1 ug, Continuous 24 hrs (first listing, 24 hr pulse series)) | Morphological cytotoxicity grade ([1]; 1 ug, continuous 24 hrs (second listing, long term continuous series)) | time to resume migration after cells clear the agent [2] [h] | migration grade following removal of the therapeutic agent ([3]; even after 10 days of continuous exposure) | migration grade into the cleared area adjacent to the scratch ([3]; exposure) | BRDU labeling grade ([4]; 24 hours following balloon trauma, pretrauma baseline grade 1) | minimum effective dose (MED) [5] [ng/mL] | BRDU labeling grade ([4]; pig, in vivo) | minimum effective dose (MED) [6] [ng/mL]
1 | cytochalasin B | significant threshold effect | decreased | approximately two times as large | larger luminal area | 0 | 0 | 1 | 0 | 1 | 3 | 3 | ≤ 24 | +3 to +4 | +1 to +2 | 1 (1 = ≤ 1/high power field(HPF)) |  |  | 
2 | CN[C@@H]1C[C@H]2O[C@@](C)([C@@H]1OC)n1c3ccccc3c3c4c(c5c6ccccc6n2c5c31)C(=O)NC4 [staurosporin] |  |  |  |  |  |  |  |  |  |  |  |  |  |  |  | 1 | 1 (key: 1 = ≤ 1/high power field(HPF); 2 = 2 to 5/HPF; 3 = > 5 to ≤ 10/HPF; 4 = > 10/HPF) | 1
